From ChEMBL document CHEMBL2203185, “Development of sub-nanomolar dipeptidic ligands of neuropeptide FF receptors” (Bioorg Med Chem Lett, 2012)

How the values were obtained:
[1] = biological target: T1, Neuropeptide FF receptor 2 (Homo sapiens, UniProt Q9Y5X5); assay: Ratio of RF2 Ki to compound Ki for human flag-tagged NPFF2 receptor
[2] = biological target: T1, Neuropeptide FF receptor 2; assay: Displacement of [3H]FFRF-NH2 from human flag-tagged NPFF2 receptor expressed in CHO cells by scintillation counting; format: cell-based
[3] = biological target: T1, Neuropeptide FF receptor 2; assay: Displacement of [3H]FFRF-NH2 from human flag-tagged NPFF2 receptor expressed in CHO cells at 500 nM by scintillation counting; format: cell-based
[4] = biological target: T1, Neuropeptide FF receptor 2; assay: Displacement of [3H]FFRF-NH2 from human flag-tagged NPFF2 receptor expressed in CHO cells at 5 uM by scintillation counting; format: cell-based
[5] = biological target: T2, Neuropeptide FF receptor 1 (Homo sapiens, UniProt Q9GZQ6); assay: Displacement of [3H]FFRF-NH2 from human flag-tagged NPFF1 receptor expressed in CHO cells by scintillation counting; format: cell-based
T2 sequence (Q9GZQ6 whole entry): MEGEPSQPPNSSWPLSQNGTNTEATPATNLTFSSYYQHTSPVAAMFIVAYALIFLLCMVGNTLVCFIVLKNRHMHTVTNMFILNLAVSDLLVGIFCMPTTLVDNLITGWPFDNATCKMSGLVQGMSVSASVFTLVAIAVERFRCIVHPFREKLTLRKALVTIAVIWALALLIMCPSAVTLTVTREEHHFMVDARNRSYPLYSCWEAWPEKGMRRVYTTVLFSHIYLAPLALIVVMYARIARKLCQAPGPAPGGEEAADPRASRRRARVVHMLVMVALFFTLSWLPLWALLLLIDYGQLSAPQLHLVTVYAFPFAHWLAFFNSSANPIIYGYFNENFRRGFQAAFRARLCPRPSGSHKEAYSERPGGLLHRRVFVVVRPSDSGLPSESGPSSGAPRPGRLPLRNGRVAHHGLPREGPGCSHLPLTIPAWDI

[6] = biological target: T2, Neuropeptide FF receptor 1; assay: Displacement of [3H]FFRF-NH2 from human flag-tagged NPFF1 receptor expressed in CHO cells at 500 nM by scintillation counting; format: cell-based
[7] = biological target: T2, Neuropeptide FF receptor 1; assay: Displacement of [3H]FFRF-NH2 from human flag-tagged NPFF1 receptor expressed in CHO cells at 5 uM by scintillation counting; format: cell-based

T1 sequence (Q9Y5X5 whole entry): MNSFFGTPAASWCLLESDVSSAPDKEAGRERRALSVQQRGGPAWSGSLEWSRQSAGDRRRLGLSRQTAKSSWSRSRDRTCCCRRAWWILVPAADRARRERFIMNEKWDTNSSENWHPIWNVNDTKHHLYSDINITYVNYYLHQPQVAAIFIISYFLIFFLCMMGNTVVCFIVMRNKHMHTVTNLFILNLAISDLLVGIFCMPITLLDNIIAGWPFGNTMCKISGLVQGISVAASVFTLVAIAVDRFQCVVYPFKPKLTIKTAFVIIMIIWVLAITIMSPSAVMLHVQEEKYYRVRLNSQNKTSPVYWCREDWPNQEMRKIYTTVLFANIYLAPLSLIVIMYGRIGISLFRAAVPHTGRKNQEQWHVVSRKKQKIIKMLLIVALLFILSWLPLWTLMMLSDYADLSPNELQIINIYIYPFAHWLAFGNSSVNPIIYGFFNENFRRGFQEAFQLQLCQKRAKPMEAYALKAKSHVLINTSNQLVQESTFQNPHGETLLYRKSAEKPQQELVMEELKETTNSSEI

Ratio Ki [1] | Ki [2] | inhibition [3] | inhibition [4] | Ki [5] | inhibition [6] | inhibition [7] | SMILES
5 | 22 nM | 55% | 92% | 11 nM | 80% | 90% | N=C(N)NCCC[C@@H](NC(=O)c1ccccc1)C(=O)N[C@@H](Cc1ccccc1)C(N)=O
– | 4 nM | 84% | 100% | 10 nM | 75% | 82% | N=C(N)NCCC[C@@H](NC(=O)C(c1ccccc1)c1ccccc1)C(=O)N[C@@H](Cc1ccccc1)C(N)=O
– | 92 nM | 32% | 92% | 23 nM | 66% | 99% | N=C(N)NCCC[C@H](NC(=O)c1ccccc1)C(=O)N[C@@H](Cc1ccccc1)C(N)=O
– | 227 nM | 18% | 46% | 15 nM | 74% | 86% | N=C(N)NCCC[C@@H](NC(=O)C(c1ccccc1)c1ccccc1)C(=O)N[C@H](Cc1ccccc1)C(N)=O
– | 117 nM | 18% | 58% | 0.8 nM | 84% | 95% | N=C(N)NCCC[C@@H](NC(=O)/C=C/c1ccccc1)C(=O)N[C@@H](Cc1ccccc1)C(N)=O
– | 1620 nM | 0% | 14% | 84 nM | 55% | 82% | N=C(N)NCCC[C@@H](NC(=O)/C=C/c1ccccc1)C(=O)N[C@H](Cc1ccccc1)C(N)=O
– | 4 nM | 65% | 90% | 2 nM | 89% | 97% | N=C(N)NCCC[C@@H](NC(=O)c1ccccc1-c1ccccc1)C(=O)N[C@@H](Cc1ccccc1)C(N)=O
– | 590 nM | – | – | 0.32 nM | – | – | NC(=O)[C@H](Cc1ccccc1)NC(=O)[C@H](CCCN=C(N)N)NC(=O)c1ccccc1-c1ccccc1

The remaining lines, values behind:

SMILES | Ratio Ki [1] | Ki [2] | inhibition [3] | inhibition [4] | Ki [5] | inhibition [6] | inhibition [7]
N=C(N)NCCC[C@H](NC(=O)c1ccc2cc[nH]c2c1)C(=O)N[C@@H](Cc1ccccc1)C(N)=O | – | 136 nM | 38% | 70% | 378 nM | 41% | 89%
COc1cccc(C(=O)N[C@@H](CCCNC(=N)N)C(=O)N[C@@H](Cc2ccccc2)C(N)=O)c1 | – | 206 nM | 5% | 60% | 106 nM | 11% | 85%
NC(=O)[C@@H](Cc1ccccc1)NC(=O)[C@@H](CCCN=C(N)N)NC(=O)Cc1ccccc1 | – | 3200 nM | – | – | 273 nM | – | –
NC(=O)[C@H](Cc1ccccc1)NC(=O)[C@H](CCCN=C(N)N)NC(=O)C12CC3CC(CC(C3)C1)C2 | – | 43 nM | – | – | 22 nM | – | –
N=C(N)NCCC[C@H](NC(=O)C12CC3CC(CC(C3)C1)C2)C(=O)N[C@H](Cc1ccccc1)C(N)=O | – | 424 nM | 4% | 49% | 114 nM | 18% | 79%
NC(=O)[C@H](Cc1ccccc1)NC(=O)[C@H](CCCN=C(N)N)NC(=O)c1cccc2ccccc12 | – | 141 nM | – | – | 87 nM | – | –
N=C(N)NCCC[C@@H](NC(=O)C12CC3CC(CC(C3)C1)C2)C(=O)N[C@@H](Cc1ccccc1)C(N)=O | – | 142 nM | 21% | 60% | 29 nM | 85% | 100%
NC(=O)[C@@H](Cc1ccccc1)NC(=O)[C@@H](CCCN=C(N)N)NC(=O)c1cccc(-c2ccccc2)c1 | – | 672 nM | – | – | 110 nM | – | –
NC(=O)[C@@H](Cc1ccccc1)NC(=O)[C@@H](CCCN=C(N)N)NC(=O)c1ccccc1 | – | 2020 nM | – | – | 198 nM | – | –
NC(=O)[C@H](Cc1ccccc1)NC(=O)[C@@H](CCCN=C(N)N)NC(=O)c1cccc(-c2ccccc2)c1 | – | 9 nM | – | – | 6 nM | – | –
NC(=O)[C@@H](Cc1ccccc1)NC(=O)[C@@H](CCCN=C(N)N)NC(=O)C12CC3CC(CC(C3)C1)C2 | – | 208 nM | – | – | 51 nM | – | –
NC(=O)[C@H](Cc1ccccc1)NC(=O)[C@@H](CCCN=C(N)N)NC(=O)c1ccc(-c2ccccc2)cc1 | – | 94 nM | – | – | 2 nM | – | –
